# From patent publication US20250382588A1, “CHIMERIC AAV AND USES THEREOF” (priority 2023, published 2025)
# Experiments:
# c-Fos+ cells in the SNr = assay: c-Fos staining in the SNr after CNO; type: in vivo, mice; settings: AAV8R12-G88P3-HA-hM3Dq
# [1] = tested on: retrogradely labeled D1-MSNs; assay: Striatal slice whole-cell recordings of retrogradely labeled MSNs; type: cell-based, mice; settings: AAV8R12-G88P3-HA-hM3Dq-2A-EYFP; CNO 10 μM
# Description: Mice from different groups were anesthetized with […] isoflurane, and then decapitated. The brain was quickly extracted and placed in ice-cold N-methyl-D-glucamine (NMDG) cutting solution containing (in mM): 92 NMDG, 2.5 KCl, 25 NaHCO3, 1.25 NaH2PO4, 4.5 D-Glucose, 20 HEPES, 5 L-ascorbic acid, 3 Na-pyruvate, 2 Thiourea, 10 MgSO4, 0.5 CaCl2). The pH was adjusted to 7.2±0.1 using HCl and the osmolarity was adjusted to 305±5 mosmol/L using NMDG. The solution was bubbled with 95% O2/5% CO2 prior to use. Coronal striatum slices were cut in 250-[…] thickness with a vibratome slicer (Leica, VT1200 S), and then incubated in artificial cerebrospinal fluid (aCSF) saturated with 95% O2/5% CO2 for at least 45 min at 37° C. before recording. The aCSF contains (in mM) 125 NaCl, 1.25 KCl, 25 NaHCO3, 1.25 KH2PO4, 25 D-Glucose, 2 CaCl2) and 1 MgCl2, supplemented with 2 mM Na-pyruvate, 3 mM Myo-inositol and 0.4 mM L-ascorbic acid.
# The acute striatum slice was transferred to the recording chamber with a constant perfusion of oxygenized aCSF at the rate of 3 ml/min. Neurons were visualized using an upright microscope (Olympus, BX-51) with a 40× water immersion objective at room temperature (˜25° C.). […] Neurons were quickly visualized under fluorescence microscope and then patch clamp were achieved under infrared light illumination and CCD camera. […]
# rM3Ds = molecular target: T1, rM3Ds (Rattus norvegicus, UniProt P08483, A177S/A238G/A489L/DEL261-437/DEL441-478/E258S/I253V/I483M/INS256[…]/K178L/K182A/K255R/K484R/K486H/L173F/L482A/M480V/R171S/R176Q/R179M/S481M/T174R/T181R/T257A/Y148C); assay: Electrophysiological recording in caudate/putamen of MPP+ lesioned macaques after CNO or DCZ; type: in vivo
# T1 sequence (P08483 with tags, fused parts or gaps Y148C/R171S/L173F/T174R/R176Q/A177S/K178L/R179M/T181R/K182A/A238G/I253V/K255R/INS256[…]/T257A/E258S/DEL261-437/DEL441-478/M480V/S481M/L482A/I483M/K484R/K486H/A489L): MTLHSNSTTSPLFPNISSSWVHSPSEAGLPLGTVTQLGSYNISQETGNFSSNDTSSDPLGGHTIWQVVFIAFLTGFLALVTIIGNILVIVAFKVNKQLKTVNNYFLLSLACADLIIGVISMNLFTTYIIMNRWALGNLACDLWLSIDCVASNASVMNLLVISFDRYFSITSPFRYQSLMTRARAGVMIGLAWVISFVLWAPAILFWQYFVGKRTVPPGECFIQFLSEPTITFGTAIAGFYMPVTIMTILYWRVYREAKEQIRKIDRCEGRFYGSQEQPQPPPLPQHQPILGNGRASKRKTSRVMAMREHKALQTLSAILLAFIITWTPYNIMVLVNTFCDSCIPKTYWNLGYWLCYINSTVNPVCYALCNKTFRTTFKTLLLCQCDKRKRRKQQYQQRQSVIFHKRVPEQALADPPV
# Procedure: Intriguingly, many of the symptoms were greatly reversed after systemic deschloroclozapine (DCZ) administration. DCZ is a potent brain-penetrable agonist for rM3Ds with reduced off-targeting binding compared to CNO, and was administered to activate the DREADD system in the macaque brain.
# Electrophysiological recording was performed through a recording chamber while the monkey was anesthetized. Neural responses were recorded by a 16-channel linear probe (Plexon Inc, Uprobe) driven by a mechanical microdrive (Alpha Omega, FlexMT). Signals were passed through a head stage (Plexon Inc, HST/16V-G20 LN) and then split and filtered between 300 Hz and 5 kHz to identify spiking activity with an amplifier system (Plexon Inc, OmniPlex). Detected spikes were then sorted by commercially available software (Plexon Inc, Offline Sorter) for further analysis. To quantify the effect of CNO/DCZ injection, neural activity was recorded for 60 minutes following CNO/DCZ injection. The response time-course for each channel was obtained by counting the spikes within every 10-minute window and then normalizing to the maximal.
# To determine the effect of CNO/DCZ injection on the direction of signal change, we performed Pearson correlation between neural responses and time using the ‘corr’ function in Matlab, which generates the correlation coefficient ‘r’ and significant level ‘p’. A neuron was considered to have “Increased” activity when r>0 and p<[…]; and considered to have “Decreased” activity when r<0 and p<0.05. Otherwise, neurons were considered to be “Unchanged” in their neural activities. The responses of all increased neurons were then averaged after being normalized by the maximal response (Crowe et al., 2014; Dai and Wang, 2018; Hirokawa et al., 2019) following CNO/DCZ injection, and then plotted as a function of time to generate the normalized population response.
# [2] = caudate/putamen, CNO 36 cells, DCZ 31 cells
smiles,measurement,setting,value
"C[N+]1([O-])CCN(C2=Nc3cc(Cl)ccc3Nc3ccccc32)CC1 [CNO, clozapine N-oxide]",c-Fos+ cells in the right SNr,c-Fos+ cells in the SNr; CNO intraperitoneal,significant increase
same,number of nigral c-Fos+ cells,c-Fos+ cells in the SNr; intracranial CNO infusions,No significant changes
same,excitability of transduced MSNs,[1],augmentation of excitability
same,"neuronal activity in MPP+ lesioned macaques, in words",rM3Ds; anesthetized animals,induced an increase in neuronal activity
same,cells activated (FIG. 15G),rM3Ds; [2],52.8%
same,cells inactivated (FIG. 15G),rM3Ds; [2],13.9%
same,cells unchanged (FIG. 15G),rM3Ds; [2],33.3%
